Data reported in patent publication US7056892B2, “Glucopyranosyloxypyrazole derivatives, medicinal compositions containing the same and intermediates in the production thereof” (Kissei Pharmaceutical Co., Ltd., priority 1999, dated 2006).

Assays:
[1] = molecular target: T1, human SGLT2 (Homo sapiens, UniProt P31639, I433V); assay: Assay for inhibitory effect on human SGLT2 activity (uptake of methyl-α-D-glucopyranoside in COS-7 cells expressing transiently human SGLT2); format: cell-based
T1 construct: expressed in transfected cells; host or cells: COS-7 cells (RIKEN CELL BANK RCB0539), transient electroporation of plasmid KL29
T1 sequence (P31639 1-672 I433V): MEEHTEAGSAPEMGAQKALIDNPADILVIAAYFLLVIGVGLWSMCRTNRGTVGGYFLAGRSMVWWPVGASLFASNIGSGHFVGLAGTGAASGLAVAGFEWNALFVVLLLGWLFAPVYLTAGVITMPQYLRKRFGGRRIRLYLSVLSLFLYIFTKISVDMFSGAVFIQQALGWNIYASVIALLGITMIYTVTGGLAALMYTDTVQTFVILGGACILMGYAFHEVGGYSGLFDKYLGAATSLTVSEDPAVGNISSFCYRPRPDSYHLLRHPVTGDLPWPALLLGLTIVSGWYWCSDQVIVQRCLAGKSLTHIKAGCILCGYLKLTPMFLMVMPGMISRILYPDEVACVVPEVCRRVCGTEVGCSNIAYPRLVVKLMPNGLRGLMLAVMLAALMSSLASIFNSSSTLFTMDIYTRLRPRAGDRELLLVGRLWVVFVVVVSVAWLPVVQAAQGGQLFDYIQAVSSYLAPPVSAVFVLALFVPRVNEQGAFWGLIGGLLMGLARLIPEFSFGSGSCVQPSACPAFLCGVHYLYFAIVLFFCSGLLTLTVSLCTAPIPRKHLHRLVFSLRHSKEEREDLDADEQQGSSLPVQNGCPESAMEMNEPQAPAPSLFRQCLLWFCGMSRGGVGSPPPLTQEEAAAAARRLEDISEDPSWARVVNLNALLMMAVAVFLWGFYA
Procedure: Assay for Inhibitory Effect on Human SGLT2 Activity
1) Construction of the Plasmid Vector Expressing Human SGLT2
Preparation of the cDNA library for PCR amplification was performed by reverse transcription of a total RNA deprived from human kidney (Ori gene) with oligo dT as the primer, using Super Script preamplification system (Gibco-BRL: LIFE TECHNOLOGIES). The DNA fragment coding for human SGLT2 was amplified by the PCR reaction, in which the human kidney cDNA library described above was used as the template and the following oligo nucleotides 0702F and 0712R, presented as sequence number 1 and 2 respectively, were used as the primers. The amplified DNA fragment was ligated into pCR (Invitrogen), a vector for cloning, according to standard method of the kit. The Escherichia coli HB101 was transformed according to usual method and then selection of the transformants was performed on the LB agar medium containing 50 μg/mL of kanamycin. […] After plasmid DNA was extracted and purified from this transformant, the base sequence of the DNA fragment inserted at the multi-cloning sites of the vector pcDNA3.1 (−) Myc/His-B was analyzed. […]

[2] = tested on: normal mice; conditions: J. Med. Chem., Vol. 39, pp. 3920–3928 (1996); cited from earlier work
[3] = tested on: SD rats; assay: Assay for the facilitatory effect on urinary glucose excretion, Method A (subcutaneous); format: in vivo, rat; conditions: oral glucose 2 g/kg, 4 hours, per 1 body
Procedure: (§1) Assay for the Facilitatory Effect on Urinary Glucose Excretion
As experimental animal, overnight fasted SD rats (SLC, male, 5 weeks of age, 120–150 g) were used. Test compound (25.40 mg) was suspended in 762 μL of ethanol and dissolved by adding of 3.048 mL of polyethylene glycol 400 and 3.81 mL of saline and then 3.3 mg/mL solution was prepared. A part of this solution was diluted with the solvent (saline:polyethylene glycol 400:ethanol=5:4:1) and then each solution at the concentration of 3.3, 1 or 0.33 (mg/mL) was prepared. Each of these solutions was subcutaneously administrated to the rats at the dose of 3 mL/kg (10, 3 and 1 mg/kg). For the control, just only the solvent (saline:polyethylene glycol 400:ethanol=5:4:1) was subcutaneously administrated at the dose of 3 mL/kg. Immediately after this subcutaneous administration, 200 g/L glucose solution was orally administered at the dose of 10 mL/kg (2 g/kg). The subcutaneous administration was performed with 26G needle and 1 mL syringe. The oral administration was performed with gastric tube for rat and 2.5 mL syringe. The head count in one group was 3. Collection of urine was performed in metabolic cage after these administrations were finished. The sampling time for collection of urine was 4 hours after the glucose administration. After collection of urine was finished, the urine volume was recorded and the urinary glucose concentration was measured. The glucose concentration was measured with a kit for laboratory test: Glucose B-Test WAKO (Wako Pure Chemical Industries, Ltd.). The amount of urinary glucose excretion in 4 hours per 1 body was calculated from urine volume and urinary glucose concentration.

[4] = tested on: SD rats; assay: Assay for the facilitatory effect on urinary glucose excretion, Method B (intravenous); format: in vivo, rat; conditions: oral glucose 2 g/kg, 24 hours, per 200 g of body weight
Procedure: as §1
As experimental animal, overnight fasted SD rats (SLC, male, 7 weeks of age, 180–220 g) were used. A test compound (10 mg) was suspended or dissolved in 300 μL of ethanol and dissolved by adding of 1.2 mL of polyethylene glycol 400 and 1.5 mL of saline and then 3.3 mg/mL solution was prepared. A part of this solution was diluted with the solvent (saline:polyethylene glycol 400:ethanol=5:4:1) and then each solution at the concentration of 3.3, 0.33 or 0.033 (mg/mL) was prepared. After the body weights of the rats were measured, the test compound solution was administrated by intravenous injection to the tail vein at the dose of 3 mL/kg (10, 1 and 0.1 mg/kg). For the control, just only the solvent (saline:polyethylene glycol 400:ethanol=5:4:1) was administrated by intravenous injection to the tail vein at the dose of 3 mL/kg. Immediately after this intravenous administration, 200 g/L glucose solution was orally administered at the dose of 10 mL/kg (2 g/kg). The intravenous administration was performed with 26G needle and 1 mL syringe. The oral administration was performed with gastric tube for rat and 2.5 mL syringe. The head count in one group was 3. Collection of urine was performed in metabolic cage after the glucose administration was finished. The sampling time for collection of urine was 24 hours after the glucose administration. After collection of urine was finished, the urine volume was recorded and the urinary glucose concentration was measured. The glucose concentration was measured with a kit for laboratory test: Glucose B-Test WAKO (Wako Pure Chemical Industries, Ltd.). The amount of urinary glucose excretion in 24 hours per 200 g of body weight was calculated from urine volume, urinary glucose concentration and body weight.

[5] = tested on: ICR mice; assay: Acute toxicity test, Method A (oral); format: in vivo; conditions: 1000 mg/kg oral, male ICR mice, 5 animals, observation until 24 hours
Procedure: By adding of 0.5% sodium carboxymethylcellulose solution to the test compound, 100 mg/mL suspension was prepared. As experimental animal, male 6–7 weeks of age ICR mice fasted for 4 hours (Clea Japan, 28–33 g, 5 animals in each group) were used. The test suspension described above was orally administrated to the experimental animals described above at the dose of 10 mL/kg (1000 mg/kg) and then observation was performed until 24 hours after the administration.

[6] = tested on: ICR mice; assay: Acute toxicity test, Method B (subcutaneous); format: in vivo; conditions: 600 mg/kg subcutaneous, male ICR mice, 5 animals, observation until 24 hours
Procedure: By adding of the solvent (saline:polyethylene glycol 400:ethanol=5:4:1) to the test compound, 200 mg/mL suspension was prepared. As experimental animal, male 5 weeks of age ICR mice fasted for 4 hours (Clea Japan, 26–33 g, 5 animals in each group) were used. The test suspension described above was subcutaneously administrated to the experimental animals described above at the dose of 3 mL/kg (600 mg/kg) and then observation was performed until 24 hours after the administration.

Compound | IC50 ([1]; COS-7 cells expressing transiently human SGLT2, uptake of methyl-α-D-(U-14C)glucopyranoside, 37° C., 2 hours) [µM] | inhibitory activity in human SGLT2 (in words) ([1]; assay for inhibitory effect on human SGLT2 activity) | amount of excreted glucose [2] | Amount of Urinary Glucose Excretion ([3]; 1 mg/kg subcutaneous) [mg] | Amount of Urinary Glucose Excretion ([3]; 3 mg/kg subcutaneous) [mg] | Amount of Urinary Glucose Excretion ([3]; 10 mg/kg subcutaneous) [mg] | Amount of Urinary Glucose Excretion ([4]; 0.1 mg/kg intravenous) [mg] | Amount of Urinary Glucose Excretion ([4]; 1 mg/kg intravenous) [mg] | Amount of Urinary Glucose Excretion ([4]; 10 mg/kg intravenous) [mg] | Death number [5] | Death number [6]
CSc1ccc(Cc2c(C(F)(F)F)[nH][nH]c2=O)cc1 [WAY-123783] | > 100 | extremely weak inhibitory activity | increased |  |  |  |  |  |  |  | 
Cc1[nH]nc(O[C@@H]2O[C@H](CO)[C@@H](O)[C@H](O)[C@H]2O)c1Cc1ccc(C(C)C)cc1 [Example 45, 3-(β-D-Glucopyranosyloxy)-4-[(4-isopropylphenyl)methyl]-5-methyl-1H-pyrazole] |  |  |  | 22.1 | 83.2 | 153.3 | 2 | 45 | 132 | 0/5 | 
Cc1[nH]nc(O[C@@H]2O[C@H](CO)[C@@H](O)[C@H](O)[C@H]2O)c1Cc1ccc(OC(C)C)cc1 [Example 35, 3-(β-D-Glucopyranosyloxy)-4-[(4-isopropoxyphenyl)methyl]-5-methyl-1H-pyrazole] |  |  |  |  |  |  | 16 | 74 | 188 |  | 0/5
